Experimental data taken from the supplement of paper PMC10949913.

Assays:
Settings in all cases: 48 h
NCI-H295R [1] = assay: area under concentration-response curve (viability) (AUC (a.u.)); higher = less active
Procedure, shortened: (§1)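 AC50 and area under the curve values derive from fitted concentration-response curves, restricted to inhibitory or non-responding curve classes. The curves came from three adrenocortical carcinoma cell lines in 1,536-well plates, each receiving 23 nL of every library compound at 11 concentrations. Viability was read by CellTiter-Glo luminescence after 48 h, normalised per plate to vehicle and empty-well controls.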

CU-ACC1 [2] = assay: as above
Procedure, shortened: as §1

CU-ACC2 [3] = assay: as above
Procedure, shortened: as §1

NCI-H295R [4] = assay: AC50 viability; higher = less potent
Procedure, shortened: as §1

CU-ACC1 [5] = assay: AC50 viability; higher = less potent
Procedure, shortened: as §1

CU-ACC2 [6] = assay: AC50 viability; higher = less potent
Procedure, shortened: as §1

| Compound | area under concentration-response curve (NCI-H295R [1]) | area under concentration-response curve (CU-ACC1 [2]) | area under concentration-response curve (CU-ACC2 [3]) | AC50 viability (NCI-H295R [4]) | AC50 viability (CU-ACC1 [5]) | AC50 viability (CU-ACC2 [6]) |
| --- | --- | --- | --- | --- | --- | --- |
| CCOC(=O)CCNc1cc(N2CCc3ccccc3CC2)nc(-c2ccccn2)n1 | 444 | 384 | 534 | 3.72 µM | 3.32 µM | 16.6 µM |
| O=C(/C=C\n1cnc(-c2cc(C(F)(F)F)cc(C(F)(F)F)c2)n1)NNc1cnccn1 | 469 | 319 | 489 | 13.2 µM | 20.9 µM | 11.8 µM |
| CC(C)N(CCCNC(=O)Nc1ccc(C(C)(C)C)cc1)C[C@H]1O[C@@H](n2cc(Br)c3c(N)ncnc32)[C@H](O)[C@@H]1O | 464 | 438 | 506 | 16.6 µM | 16.6 µM | 16.6 µM |
| CC(C)C[C@H](NC(=O)[C@H](CCc1ccccc1)NC(=O)CN1CCOCC1)C(=O)N[C@@H](Cc1ccccc1)C(=O)N[C@@H](CC(C)C)C(=O)[C@@]1(C)CO1 | 359 | 302 | 256 | 0.166 µM | 0.186 µM | 0.0235 µM |
| C1CCC(C(CC2CCCCN2)C2CCCCC2)CC1 (configuration not stated) | 414 | 398 | 460 | 9.34 µM | 8.33 µM | 11.8 µM |
| CN(c1ncccc1CNc1nc(Nc2ccc3c(c2)CC(=O)N3)ncc1C(F)(F)F)[S+](C)(=O)[O-] | 430 | 404 | 422 | 14.8 µM | 13.2 µM | 6.61 µM |
| COC(=O)Nc1cc(Nc2cc(NC3CC3)c3ncc(C#N)n3n2)c(Cl)c(N2CCN(C)CC2)c1 | 443 | 466 | 506 | 2.63 µM | 6.61 µM | 6.61 µM |
| COc1cc(F)ccc1-c1ncnc(Nc2cccc(C[S+](C)(=N)[O-])c2)n1 (configuration not stated) | 428 | 388 | 380 | 4.17 µM | 1.86 µM | 0.934 µM |
| c1ccc2c(CCNc3ccc(Nc4ccncc4)cc3)c[nH]c2c1 | 400 | 363 | 374 | 1.86 µM | 5.9 µM | 10.5 µM |
| COc1cc(-c2nn(C3CCC(N4CCN(C(C)=O)CC4)CC3)c3ncnc(N)c23)ccc1NC(=O)c1cc2ccccc2n1C (configuration not stated) | 460 | 418 | 512 | 9.34 µM | 8.33 µM | 10.5 µM |
| CCc1cnn2c(NCc3ccc[n+]([O-])c3)cc(N3CCCC[C@H]3CCO)nc12 | 158 | 177 | 167 | 0.00417 µM | 0.00263 µM | 0.0059 µM |
| Cc1cc(F)c(C(=O)Nc2cccc(-c3nncn3C(C)C)n2)cc1-n1cnc(C2CC2)c1 | 419 | 427 | 360 | 18.6 µM | 18.6 µM | 11.8 µM |
| COCCOC(=O)N1CCN([S+](=O)([O-])c2cc(F)c(Oc3ccc(Cl)cc3)c(F)c2)C(C(=O)NO)C1 (configuration not stated) | 507 | 471 | 428 | 20.9 µM | 13.2 µM | 10.5 µM |
| O=C(/C=C\n1cnc(-c2cc(C(F)(F)F)cc(C(F)(F)F)c2)n1)NNc1ccccn1 | 271 | 273 | 245 | 10.5 µM | 2.35 µM | 1.32 µM |
| CC(C)[C@@H](N(CCCN)C(=O)C1=CC=C(C)C=C1)C/2=N/C3=CC(=CC=C3C(=O)N2CC4=CC=CC=C4)Cl | 410 | 440 | 567 | 5.9 µM | 20.9 µM | 26.3 µM |
| C[N]1C=C(C=N1)C2=CC=C3N=CC\4=C(N(C(=O)\C=C4)C5=CC6=C(CCN6C(=O)C=C)C=C5)C3=C2 | 399 | 349 | 433 | 0.723 µM | 0.407 µM | 0.723 µM |
| Cc1ccc(-c2cc(C(F)(F)F)nn2-c2ccc([S+](N)(=O)[O-])cc2)cc1 | 271 | 268 | 261 | 9.34 µM | 10.5 µM | 10.5 µM |
| O=C(Nc1c[nH]nc1-c1nc2cc(CN3CCOCC3)ccc2[nH]1)NC1CC1 | 350 | 423 | 386 | 16.6 µM | 8.33 µM | 2.63 µM |
| CN1CCN(c2cc(C(=O)Nc3ccc4c(c3)-c3c(c(C(N)=O)nn3-c3ccc(F)cc3)CC4)c(Cl)cn2)CC1 | 480 | 427 | 521 | 10.5 µM | 9.34 µM | 20.9 µM |
| CC(C)C1NC(=O)C(NC(=O)C2=C3\N=C\4/C(=C(C)\C(=O)\C(=C4C(=O)NC5C(C)OC(=O)C(C(C)C)N(C)C(=O)CN(C)C(=O)C6CCCN6C(=O)C(NC5=O)C(C)C)N)OC3=C(C)C=C2)C(C)OC(=O)C(C(C)C)N(C)C(=O)CN(C)C(=O)C7CCCN7C1=O (configuration not stated) | 307 | 230 | 152 | 0.144 µM | 0.0512 µM | 0.00812 µM |
| Cc1cc2c(C(N)=O)cccc2n1-c1nc2c(c(NCc3ccccc3)n1)COCC2 | 436 | 306 | 467 | 2.63 µM | 3.32 µM | 2.09 µM |
| NC1(C(=O)N[C@@H](CCO)c2ccc(Cl)cc2)CCN(c2ncnc3[nH]ccc23)CC1 | 463 | 432 | 515 | 5.9 µM | 3.72 µM | 18.6 µM |
| O=C(CCCCCCNC(=O)c1cnc(N(c2ccccc2)c2ccccc2)nc1)NO | 525 | 364 | 552 | 20.9 µM | 18.6 µM | 11.8 µM |
| COc1cc2nc(N3CCCN(C)CC3)nc(NC3CCN(Cc4ccccc4)CC3)c2cc1OC | 494 | 362 | 535 | 9.34 µM | 13.2 µM | 8.33 µM |
| COc1cccc2c1C(=O)c1c(O)c3c(c(O)c1C2=O)C[C@@](O)(/C(CO)=N/NC(=O)CCCCCN1C(=O)C=CC1=O)C[C@@H]3O[C@H]1C[C@H](N)[C@H](O)[C@H](C)O1 | 492 | 356 | 539 | 18.6 µM | 20.9 µM | 18.6 µM |
| COc1cccc2c1C(=O)c1c(O)c3c(c(O)c1C2=O)C[C@@](O)(C(C)=O)C[C@@H]3O[C@H]1C[C@H](N)[C@H](O)[C@H](C)O1 | 369 | 305 | 350 | 4.68 µM | 2.95 µM | 2.35 µM |

| Compound | area under concentration-response curve (NCI-H295R [1]) | area under concentration-response curve (CU-ACC1 [2]) | area under concentration-response curve (CU-ACC2 [3]) | AC50 viability (NCI-H295R [4]) | AC50 viability (CU-ACC1 [5]) | AC50 viability (CU-ACC2 [6]) |
| --- | --- | --- | --- | --- | --- | --- |
| CO[C@@H]1[C@@H](O)[C@H](O)[C@@H](n2c3c(Cl)cccc3c3c4c(c5c6cccc(Cl)c6[nH]c5c32)C(=O)NC4=O)O[C@H]1CO | 494 | 461 | 438 | 2.63 µM | 3.32 µM | 8.33 µM |
| COc1ccc(-c2cc3c(C)nc(N)nc3n([C@H]3CC[C@H](OCCO)CC3)c2=O)cn1 | 435 | 425 | 446 | 0.235 µM | 0.295 µM | 0.59 µM |
| CNC(=O)c1ccc(Nc2ncc(C(F)(F)F)c(NCc3nccnc3N(C)[S+](C)(=O)[O-])n2)cc1 | 353 | 354 | 336 | 3.32 µM | 3.32 µM | 1.86 µM |
| Nc1cc(C(F)(F)F)c(-c2nc(N3CCOCC3)nc(N3CCOCC3)n2)cn1 | 441 | 381 | 413 | 3.72 µM | 5.25 µM | 16.6 µM |
| Cc1cc(Cl)ccc1OCCCC(=O)NO | 495 | 442 | 512 | 20.9 µM | 20.9 µM | 18.6 µM |
| COC(=O)N[C@H](C(=O)N1CCC[C@H]1c1ncc(-c2ccc(-c3ccc(-c4cnc([C@@H]5CCCN5C(=O)[C@@H](NC(=O)OC)C(C)C)[nH]4)cc3)cc2)[nH]1)C(C)C | 508 | 506 | 561 | 23.5 µM | 18.6 µM | 23.5 µM |
| CO[C@H]1CC[C@H](N2C(=O)CNc3ncc(-c4ccc(C(C)(C)O)nc4)nc32)CC1 | 502 | 462 | 570 | 18.6 µM | 16.6 µM | 18.6 µM |
| Cc1ccc([N+](=O)[O-])cc1[S+](=O)([O-])N(C)/N=C/c1cnc2ccc(Br)cn12 | 346 | 226 | 332 | 0.417 µM | 0.417 µM | 0.166 µM |
| COc1cc(CCc2cc(NC(=O)c3ccc(N4C[C@@H](C)N[C@@H](C)C4)cc3)n[nH]2)cc(OC)c1 | 477 | 445 | 522 | 9.34 µM | 10.5 µM | 11.8 µM |
| Oc1c(Cl)cc(Cl)c2cccnc12 | 404 | 417 | 426 | 16.6 µM | 20.9 µM | 14.8 µM |
| C[C@@H]1COCCN1c1cc(-c2ccnn2C)c2ccnc(-c3ccn[nH]3)c2n1 | 415 | 388 | 399 | 1.32 µM | 0.742 µM | 6.61 µM |
| Cc1cc2cc(Oc3ccnc(Nc4cccc(C[S+](=O)([O-])NCCN(C)C)c4)n3)ccc2[nH]1 | 468 | 493 | 480 | 23.5 µM | 20.9 µM | 23.5 µM |
| CC(C)[C@H](C(=O)Nc1ccc(C(=O)NO)cc1)c1ccccc1 | 414 | 308 | 360 | 2.35 µM | 4.17 µM | 5.25 µM |
| COc1cc(N2CCC(N)CC2)ccc1Nc1ncc(Cl)c(-c2c[nH]c3ccccc23)n1 | 318 | 386 | 357 | 1.18 µM | 9.34 µM | 5.9 µM |
| CCCCCCCOc1ccc(CCC(N)(CO)CO)cc1C(F)(F)F | 466 | 446 | 553 | 9.34 µM | 14.8 µM | 16.6 µM |
| CC1=NN=C(C[C@@H]2\C=C(C3=CC=C(Cl)C=C3)/C4=CC=CC=C4[N]5C(=NN=C25)C)O1 | 368 | 433 | 447 | 5.25 µM | 5.9 µM | 3.32 µM |
| CNC(=O)CCc1cc(-c2ccc(-c3ccc(C(F)(F)F)cc3)cc2)n(-c2ccc(N3CCNCC3)cc2)n1 | 487 | 432 | 476 | 8.33 µM | 4.68 µM | 7.42 µM |
| C1=CC2=N/C(=N\c3ccc(OCCN4CCCC4)c(c3)COC/C=C/COCc3cccc2c3)N1 | 387 | 387 | 436 | 4.17 µM | 3.72 µM | 2.63 µM |
| Fc1cc(-c2cccc3ncc(-c4cnn(C5CCNCC5)c4)nc23)cc(F)c1CN1CCOCC1 | 428 | 390 | 437 | 8.33 µM | 11.8 µM | 13.2 µM |
| O=C(/C=C/c1ccc2ccc(C(F)(F)F)cc2n1)c1ccncc1 | 402 | 365 | 439 | 3.72 µM | 3.72 µM | 2.95 µM |
| Nc1ccc(C(=O)c2cc3c(ccc4ccccc43)[nH]2)cc1 | 419 | 466 | 471 | 12.1 µM | 6.05 µM | 38.2 µM |
| OCCNC1CCCc2c1[nH]c1ccc(-c3ccccc3)cc21 (configuration not stated) | 456 | 462 | 526 | 10.5 µM | 20.9 µM | 23.5 µM |
| CC[C@H]1CN2CCc3cc(OC)c(OC)cc3[C@@H]2C[C@@H]1C[C@H]1NCCc2cc(OC)c(OC)cc21 | 412 | 366 | 463 | 1.66 µM | 0.59 µM | 0.934 µM |
| CC(=O)O/N=C1\C(=O)N(Cc2cc(Cl)ccc2Cl)c2ccc(Cl)cc21 | 504 | 448 | 382 | 13.2 µM | 2.09 µM | 7.42 µM |
| C=C1CC[C@@H]2[C@](C)(CO)[C@H](O)CC[C@@]2(C)[C@@H]1C/C=C1/C(=O)OC[C@H]1O | 372 | 334 | 388 | 16.6 µM | 11.8 µM | 5.9 µM |
| Cc1cc(O)c(-c2ccc([C@@H](C)CN(C)C)cc2)c2c1[nH]c(=O)c1sccc12 | 305 | 311 | 346 | 0.295 µM | 0.235 µM | 0.166 µM |
